In US7375105B2, “Pyridine substituted furan derivatives as Raf kinase inhibitors” (SmithKline Beecham p.l.c., priority 2001, dated 2008):

Key:
[1] = test system: human melanoma A375P; test: Methylene blue growth inhibition assay (Assay 2), A375P; type: cell-based; settings: B-Raf V599E, Ras wt
Method: (§1) Methylene Blue Growth Inhibition Assay (Assay 2)
(§2) Normal human foreskin fibroblasts (HFF), human melanoma (A375P, SKMEL2, SKMEL3) colon carcinoma (Colo 205) were cultured in the following growth media: A375P, Colo 205, Roswell Park Memorial Institute (RPMI) 1640 (Life Technologies 22400-089) containing 10% fetal bovine serum (FBS); HFF, Dulbecco's modified Eagle Medium (DMEM) (Life Technologies 12320-032) containing 10% FBS; SKMEL2 and SKMEL3, Minimum Essential Medium (MEM, Life Technologies 11095-080) containing 1× non-essential amino acids (Life Technologies 11140-050) and 10% FBS. Cells were harvested using 0.25% trypsin/1 mM, EDTA, counted using a haemocytometer, and plated in 100 microliters of the appropriate media, at the following densities, in a 96-well tissue culture plate (Falcon 3075): HFF and A375P, 5,000 cells/well; all other cell lines, 10,000 cells/well. The next day, compounds were diluted in RPMI containing 100 micrograms/ml gentamicin, at twice the final required concentration, from 10 mM stock solutions in dimethyl sulphoxide (DMSO). One hundred microliters per well of these dilutions were added to the 100 microliters of media currently on the cell plates. RPMI containing 0.6% DMSO was added to control wells. […] Optical density at 620 nm was measured on a microplate reader. Percent inhibition of cell growth was calculated relative to vehicle treated control wells. […]

[2] = test system: colon carcinoma (Colo 205); test: Methylene blue growth inhibition assay (Assay 2), Colo205; type: cell-based; settings: Homo sapiens, colorectal cancer, B-Raf V599E, Ras wt
Method: as §1, §2

[3] = test system: Human diploid foreskin fibroblasts (HFF); test: XTT 72 hr growth inhibition (Assay 3), HFF; type: cell-based; settings: Fibroblast, normal, B-Raf wt, Ras wt
Method: (§3) XTT 72 Hr Growth Inhibition Protocol for Mammalian Cultured Cells (Assay 3)
(§4) Human diploid foreskin fibroblasts (HFF) or human colon carcinoma (Colo 201) cells were grown in Dulbecco's modified Eagle's medium (DMEM) (Invitrogen/Life Technologies) containing 10% fetal bovine serum (FBS) and the antibiotics penicillin (100 Units/ml) and streotomycin (100 micrograms/ml) (Invitrogen/Life Technologies). Growth was at 37° C. in humidified 5% CO2 incubators in 75 cm^2 plastic flasks. Cells were harvested using 0.25% trypsin/1 mM ethylenediaminetetraacetic acid (EDTA), resuspended in growth medium, and counted using a hemocytometer. Flat-bottomed 96-well plates were seeded with 2×10^3 cells/well in a volume of 200 ul from trypsinized exponentially growing cultures. To “blank” wells, growth medium was added with no additions. Cells were incubated overnight to permit attachment.
(§5) Next day, medium from wells that contained cells was replaced with 180 microliters of fresh medium. Appropriate dilutions of test compounds were added to the wells from stock solutions of compound dissolved in dimethyl sulfoxide (DMSO); final DMSO concentration in all wells was 0.2%. […] Absorbance at 450 nm was then determined using a 96-well UV plate reader (Molecular Devices). Under these conditions, absorbance of untreated control cells at 450 nm was at least 1.0 optical density unit/ml. […]

[4] = target: B-Raf (Homo sapiens, UniProt P15056); test: Fluorescence anisotropy kinase binding assay (Assay 1)
From the text: Fluorescence Anisoptrophy Kinase Binding Assay
The concentration of kinase enzyme should preferably be >1×Kf. The concentration of fluorescent ligand required will depend on the instrumentation used, and the fluorescent and physicochemical properties. The concentration used must be lower than the concentration of kinase enzyme, and preferably less than half the kinase enzyme concentration. A typical protocol is:
All compounds are serially diluted in DMSO, then by a one step dilution into buffer of comparison, 50 mM HEPES, […] pH7.5, 1 mM CHAPS, 10 mM MgCL2, for the assay.
B-Raf Enzyme concentration: 1 nM
Fluorescent ligand concentration: 0.5 nM
Test compound concentration: 0.5 nM-100 uM
Components incubated in 10 ul final volume in LJL HE 384 type B black microtitre plate until equilibrium reached (Over 3 h, up to 30 h)
Fluorescence anisotropy read in an LJL Acquest fluorescence reader.
Definitions: Ki=dissociation constant for inhibitor binding
• Kf=dissociation constant for fluorescent ligand binding
The fluorescent ligand is the following compound:
which is derived from 5-[2-(4-aminomethylphenyl)-5-pyridin-4-yl-1H-imidazol-4-yl]-2-chlorophenol and rhodamine green.

[5] = test system: human melanoma SKMEL3; test: Methylene blue growth inhibition assay (Assay 2), SKMEL3; type: cell-based; settings: SK-MEL3, B-Raf V599E, Ras wt
Method: as §1, §2

[6] = test system: human melanoma SKMEL2; test: Methylene blue growth inhibition assay (Assay 2), SKMEL2; type: cell-based; settings: SK-MEL-2, B-Raf wt, [Q61R]N-Ras
Method: as §1, §2

[7] = test system: human colon carcinoma (Colo 201) cells; test: XTT 72 hr growth inhibition (Assay 3), Colo201; type: cell-based; settings: colorectal cancer, B-Raf ND, Ras ND
Method: as §3, §4, §5

Chain of B-Raf (P15056 whole entry): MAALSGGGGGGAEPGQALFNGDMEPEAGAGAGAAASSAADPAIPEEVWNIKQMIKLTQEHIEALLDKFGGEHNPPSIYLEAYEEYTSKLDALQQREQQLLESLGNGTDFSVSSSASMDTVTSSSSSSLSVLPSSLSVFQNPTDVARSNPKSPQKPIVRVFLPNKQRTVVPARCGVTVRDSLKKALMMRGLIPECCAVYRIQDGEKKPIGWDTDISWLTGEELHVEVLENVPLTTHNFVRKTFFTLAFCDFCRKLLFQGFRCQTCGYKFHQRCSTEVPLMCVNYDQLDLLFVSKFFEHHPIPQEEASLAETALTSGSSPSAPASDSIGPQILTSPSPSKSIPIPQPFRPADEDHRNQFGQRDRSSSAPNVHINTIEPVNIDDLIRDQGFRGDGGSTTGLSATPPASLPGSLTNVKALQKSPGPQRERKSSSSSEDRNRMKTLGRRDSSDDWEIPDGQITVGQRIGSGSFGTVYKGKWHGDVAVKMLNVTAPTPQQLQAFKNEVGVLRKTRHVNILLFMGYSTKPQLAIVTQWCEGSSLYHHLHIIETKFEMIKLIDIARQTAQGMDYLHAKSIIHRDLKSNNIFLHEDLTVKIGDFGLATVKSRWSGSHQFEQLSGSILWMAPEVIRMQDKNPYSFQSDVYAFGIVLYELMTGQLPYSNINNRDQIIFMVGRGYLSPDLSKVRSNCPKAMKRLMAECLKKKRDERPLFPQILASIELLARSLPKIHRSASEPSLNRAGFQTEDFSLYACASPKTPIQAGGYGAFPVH

- IC50 [1]: 1.8 µM
- IC50 [2]: 7.9 µM
- Kd [4]: 5.5 nM
- IC50 [5]: 1.4 µM
- IC50 [6]: 4.9 µM
- IC50 [7]: 8.5 µM
Structure (SMILES): CC(C)(CN)c1cc(-c2ccncc2)c(-c2ccc(Cl)c(O)c2)o1 [Example 3, 5-[5-(2-Amino-1,1-dimethyl-ethyl)-3-pyridin-4-yl-furan-2-yl]-2-chloro-phenol]
- IC50 [3]: 22 µM
